Measurements from US20240309015A1, “Methods for the Treatment of Fibrotic Disease” (SHY Therapeutics, LLC, priority 2021, published 2024).

Assays:
Smad2/3 phosphorylation = assay: Phospho-Smad2/3 Inhibition Assay in PANC-1; type: cell-based; conditions: Homo sapiens; 10 μM compound, 3 h; TGF-b1 stimulated PANC-1; western blot; read-out: % inh of Smad2/3 phosphorylation in PANC-1
Procedure: Cell lines: Human tumor-derived pancreatic cancer cell line Panc-1 and mouse muscle myoblast C2C12 were purchased from American Type Culture Collection and grown in complete DMEM-High Glucose, supplemented with penicillin (100 U/mL), streptomycin (100 μg/mL), and 10% heat-inactivated FBS at 37° C. in a humidified incubator with 5% CO2.
Method: Cells were plated at 350000 cells/well density in a 12-well plate, allowed 3 hours to adhere to the plate, then starved in the appropriate medium in the presence of 0.5% FBS overnight. The small molecules to be tested were added to the cells in the final concentration of 10 μM in the presence of 0.3% DMSO for 3 hours incubation at 37° C. For IC50 value determination, serial dilutions of compounds were added to cells under the same conditions. Next, Panc-1 cells were stimulated with 10 ng/ml TGF-b1 for 1 hour, and C2C12 cells were stimulated with 10 ng/ml TGF-b1 for 20 minutes (recombinant human TGF-b1, R&D Systems). After stimulation cells were lysed with lysis buffer containing 1% Triton X-100, EDTA, and Halt™ Protease & Phosphatase Inhibitor Cocktail (Thermo Scientific). Protein concentration was assessed by BCA protein assay (Thermo Scientific). Phosphorylation level of Smad2/Smad3 was determined by western blot.
Western blot protocol: Equal amounts of protein (15-50 μg) were separated by SDS-PAGE and transferred to nitrocellulose membranes (Invitrogen by Thermo Fisher Scientific). The membrane was stained with Ponceau S Stain (Boston BioProducts) to verify uniform protein loading. Membranes were blocked with 10% milk and phosphorylation levels of Smad2/Smad3 were assessed by incubating overnight at 4° C. with the following antibodies: Phospho-Smad2 (Ser465/467) and Phosph-Smad3 (Ser423/425), both from Cell Signaling Technology. Then the membranes were incubated with HRP-conjugated secondary antibody (Jackson Immunoresearch, West Grove, PA). Bands were incubated in Amersham ECL Prime Western Blotting Detection Reagent (GE Healthcare) and visualized using the ChemiDoc MP imaging system (Bio-Rad).

IL-6 = assay: Mouse IL6 Quantification Assay (LPS-stimulated RAW 264.7); type: cell-based; set-up: dose or concentration left out as unconfirmed; conditions: RAW264.7, ELISA, read-out: IL-6: % inh.
TNFα = assay: Mouse TNF Alpha Quantification Assay (LPS-stimulated RAW 264.7); type: cell-based; set-up: dose or concentration left out as unconfirmed; conditions: RAW264.7, ELISA, read-out: TNFα: % inh.
KRas wild type = assay: Ras GTP Binding Domain Inhibition Assay, KRas wild type; conditions: at 20 μM; for KRas wild type + SOS: % inh.: with SOS; for KRas wild type: % inh.: without SOS
In short: (§1)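 Ni-plate-captured His-tagged GTPase (10-30 μg/mL, o/n 4° C); cpd 20 μM or serial dilution (IC50), 1% DMSO, 3 h RT; optional Sos 556-1049 His-tag (10-30 μg/mL) last hour. Cy3- or Cy5-GTP 100 nM, 45 min RT, 3× wash, fluorescence read.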

KRas G12D mutant = assay: Ras GTP Binding Domain Inhibition Assay, KRas G12D mutant; conditions: at 20 μM; for KRas G12D mutant + SOS: % inh.: with SOS; for KRas G12D mutant: % inh.: without SOS
In short: as §1

KRas G12C mutant = assay: Ras GTP Binding Domain Inhibition Assay, KRas G12C mutant; conditions: at 20 μM; for KRas G12C mutant + SOS: % inh.: with SOS; for KRas G12C mutant: % inh.: without SOS
In short: as §1

Rho-A = assay: Ras GTP Binding Domain Inhibition Assay, Rho-A; conditions: at 20 μM; without SOS
In short: as §1

Structure (SMILES) | inhibition at 10 µM (Smad2/3 phosphorylation) [%] | inhibition (IL-6) [%] | inhibition (TNFα) [%] | KRas wild type + SOS: % inh. (KRas wild type) | KRas wild type: % inh. (KRas wild type) | KRas G12D mutant + SOS: % inh. (KRas G12D mutant; Table 7) | KRas G12D mutant + SOS: % inh. (KRas G12D mutant; Table 8) | KRas G12D mutant: % inh. (KRas G12D mutant; Table 7) | KRas G12D mutant: % inh. (KRas G12D mutant; Table 8) | KRas G12C mutant + SOS: % inh. (KRas G12C mutant) | KRas G12C mutant: % inh. (KRas G12C mutant) | Rho-A: % inh. (Rho-A)
COCCCCn1c(-c2nccn2C)nc2sc(-c3ccn(C(C)C)n3)c(C)c2c1=O [Compound 33, 6-(1-Isopropyl-1H-pyrazol-3-yl)-3-(4-methoxybutyl)-5-methyl-2-(1-methyl-1H-imidazol-2-yl)thieno[2,3-d]pyrimidin-4(3H)-one] | 0 | 46 to 75 | 0 | A (A = 1-25% inhibition) | 0 (0 = 0% inhibition) | 0 (0 = 0% inhibition) | 0 (0 = 0% inhibition) | 0 (0 = 0% inhibition) | 0 (0 = 0% inhibition) | A (A = 1-25% inhibition) | 0 (0 = 0% inhibition) | 0 (0 = 0% inhibition)
COCCn1ccc(-c2sc3nc(-c4nccn4C)nc(NC[C@H]4CC[C@H]4COC)c3c2C)n1 (racemic) [Compound 38, rac-6-(1-(2-Methoxyethyl)-1H-pyrazol-3-yl)-N-(((1S,2R)-2-(methoxymethyl)cyclobutyl)methyl)-5-methyl-2-(1-methyl-1H-imidazol-2-yl)thieno[2,3-d]pyrimidin-4-amine] | 46 to 75 | 76 to 100 | 76 to 100 | D (D = 76-100% inhibition) | C (C = 46-75% inhibition) | D (D = 76-100% inhibition) | D (D = 76-100% inhibition) | B (B = 26-45% inhibition) | B (B = 26-45% inhibition) | D (D = 76-100% inhibition) | C (C = 46-75% inhibition) | B (B = 26-45% inhibition)
COc1cc(-c2sc3nc(-c4nccn4C)nc(N[C@@H]4CC[C@@H](OC)C4)c3c2-c2ccccc2)ccn1 (racemic) [Compound 47, N-((1R,3R)-3-Methoxycyclopentyl)-6-(2-methoxypyridin-4-yl)-2-(1-methyl-1H-imidazol-2-yl)-5-phenylthieno[2,3-d]pyrimidin-4-amine] | 76 to 100 | – | – | D (D = 76-100% inhibition) | D (D = 76-100% inhibition) | D (D = 76-100% inhibition) | D (D = 76-100% inhibition) | C (C = 46-75% inhibition) | C (C = 46-75% inhibition) | D (D = 76-100% inhibition) | C (C = 46-75% inhibition) | C (C = 46-75% inhibition)
COc1cc(-c2sc3nc(-c4nccn4C)nc(N[C@H]4C[C@H](OC)C4)c3c2-c2ccccc2)ccn1 [Compound 46, N-((1r,3r)-3-Methoxycyclobutyl)-6-(2-methoxypyridin-4-yl)-2-(1-methyl-1H-imidazol-2-yl)-5-phenylthieno[2,3-d]pyrimidin-4-amine] | 76 to 100 | – | – | D (D = 76-100% inhibition) | C (C = 46-75% inhibition) | C (C = 46-75% inhibition) | C (C = 46-75% inhibition) | C (C = 46-75% inhibition) | C (C = 46-75% inhibition) | D (D = 76-100% inhibition) | B (B = 26-45% inhibition) | C (C = 46-75% inhibition)
COc1cc(-c2sc3nc(-c4nccn4C)nc(N[C@@H]4CC[C@H](OC)C4)c3c2-c2ccccc2)ccn1 (racemic) [Compound 44, rac-N-((1R,3S)-3-Methoxycyclopentyl)-6-(2-methoxypyridin-4-yl)-2-(1-methyl-1H-imidazol-2-yl)-5-phenylthieno[2,3-d]pyrimidin-4-amine] | 76 to 100 | – | – | D (D = 76-100% inhibition) | C (C = 46-75% inhibition) | C (C = 46-75% inhibition) | C (C = 46-75% inhibition) | D (D = 76-100% inhibition) | D (D = 76-100% inhibition) | D (D = 76-100% inhibition) | B (B = 26-45% inhibition) | 0 (0 = 0% inhibition)
COC1CCCN(c2nc(-c3nccn3C)nc3sc(-c4ccn(C(C)C)n4)c(C)c23)C1 (racemic) [Compound 14, rac-6-(1-Isopropyl-1H-pyrazol-3-yl)-4-(3-methoxypiperidin-1-yl)-5-methyl-2-(1-methyl-1H-imidazol-2-yl)thieno[2,3-d]pyrimidine] | 46 to 75 | 76 to 100 | 26 to 45 | D (D = 76-100% inhibition) | 0 (0 = 0% inhibition) | – | – | – | – | D (D = 76-100% inhibition) | B (B = 26-45% inhibition) | B (B = 26-45% inhibition)
COc1nccc(-c2sc3nc(-c4nccn4C)nc(N[C@H]4C[C@H](OC)C4)c3c2-c2ccccc2)c1F [Compound 45, 6-(3-Fluoro-2-methoxypyridin-4-yl)-N-((1r,3r)-3-methoxycyclobutyl)-2-(1-methyl-1H-imidazol-2-yl)-5-phenylthieno[2,3-d]pyrimidin-4-amine] | 76 to 100 | – | – | D (D = 76-100% inhibition) | C (C = 46-75% inhibition) | C (C = 46-75% inhibition) | C (C = 46-75% inhibition) | C (C = 46-75% inhibition) | C (C = 46-75% inhibition) | D (D = 76-100% inhibition) | B (B = 26-45% inhibition) | C (C = 46-75% inhibition)
COc1cccc(-c2sc3nc(-c4nccn4C)nc(N[C@@H]4CC[C@@H](OC)C4)c3c2C)c1F (racemic) [Compound 43, rac-6-(2-Fluoro-3-methoxyphenyl)-N-((1R,3R)-3-methoxycyclopentyl)-5-methyl-2-(1-methyl-1H-imidazol-2-yl)thieno[2,3-d]pyrimidin-4-amine] | – | 76 to 100 | 26 to 45 | D (D = 76-100% inhibition) | B (B = 26-45% inhibition) | D (D = 76-100% inhibition) | D (D = 76-100% inhibition) | A (A = 1-25% inhibition) | A (A = 1-25% inhibition) | D (D = 76-100% inhibition) | B (B = 26-45% inhibition) | B (B = 26-45% inhibition)
